Data: US11339193B2, “CDP protein secretion inhibitors” (KEZAR LIFE SCIENCES, priority 2018, dated 2022)
Where two headings read alike, the source gives them in different places. Numbered stars: 1 amine (or outer) side, 2 acyl side, 3 side chain; on linkers, the order of the positions; unused ones are H or OH. Square brackets hold non-standard residues; d marks the D form. Peptide text beside a SMILES is read from it. NMeAla(5-Cl-benzothien-3-yl) = CN[C@@H](Cc1csc2ccc(Cl)cc12)C(=O)O; X19 = CN([C@@H](Cc1cn(Cc2ccc(Cl)cc2)c2ccccc12)C(=O)[*:2])[*:1]; X14 = CC#CCn1cc(C[C@@H](C(=O)[*:2])N(C)[*:1])c2ccccc21; X16 = CN([C@@H](Cc1csc2c(Cl)cccc12)C(=O)[*:2])[*:1]; Ala(1-cyclohexenyl) = N[C@@H](CC1=CCCCC1)C(=O)O; Butanoyl(2R-oxy,4-CN) = N#CCC[C@@H](O)C(=O)O; Abu(4,4,4-F3) = N[C@@H](CC(F)(F)F)C(=O)O; X12 = O=C([C@H](CC1=CCCC1)N[*:1])[*:2]; NMeL = CN[C@@H](CC(C)C)C(=O)O; NMeA = CN[C@@H](C)C(=O)O

Columns and labels:
Assay type in all cases: cell-based
[1] = system: JJN3 plasma cell leukemia cell line; test: JJN-3 assay (Alamar blue); settings: Homo sapiens, 72 h
Protocol: BT474 is a human breast tumor cell line. JJN3 is a human plasma cell leukemia cell line. […] Cells were seeded at 100 000 cells/mL. Aliquots of 5000 cells (50 μL) were added to each well in black, clear bottom 96-well plates. Compounds or control (50 uL of 1% DMSO in cell culture medium) were added to the cells to the indicated final concentrations and cells were incubated for 72 h (unless otherwise specified). After incubation was complete, Alamar blue (10 uL of a 1 mg/mL solution) was added to each well and plates were incubated for 5 h. Fluorescence was then measured (excitation 545 nm, emission 590 nm) and is reported as […] normalized to DMSO control.

[2] = system: HER3ss-Gluc; test: HER3ss assay
Protocol: The mature domain of secreted luciferase from Gaussia princeps (GLuc) was cloned into pcDNA5/FRT/TO. The signal sequence plus four amino acids of the mature domain from HER3 ([…]) (SEQ ID NO:8) were cloned upstream of GLuc mature domain and used in transient transfection experiment. HEK-293T T-rex cells were cultured in Dulbecco's modified Eagle's medium with 10% FBS at 5% CO2. Cells were plated 1×10e6 cells per well in a 6-well plate and incubated for 6 h. Cells were transiently transfected with HER3ss-Gluc using Lipofectamine 2000 (Invitrogen). After overnight incubation, transfected cells were replated in a clear-bottomed, black 96-well plate at a density of 20,000 cells per well. Six hours after plating, the cells were treated with doxycycline (1 μg/ml) and increasing concentrations of the indicated compounds for 24 h. Secreted luciferase in the conditioned media was quantified by luminescence using the BioLux Gaussia Luciferase Assay Kit (New England Biolabs, Ipswich, Mass., USA) and a SpectraMax M5 plate reader (Molecular Devices).

[3] = system: U266B1 multiple myeloma cell line; test: U266 assay (cell viability, Celltiter-Glo); settings: Homo sapiens, U-266
Protocol: Cells were plated in 384-well tissue culture plates and treated with compound dilutions in DMSO/media. Plates were incubated at 37° C., 5% CO2 for 48 hours. After 48 hours, Celltiter-Glo@ (Promega) was added to each well and luciferase signal was quantified using Tecan Infinite M1000 Pro for cell viability determination.

[4] = system: Prl-ss+10aa/Gaussia Luciferase; test: Prl-ss-Gluc assay (constitutively active or 24 hr Dox inducible)
Text: Constitutively Active Prl-ss-Gluc Assay
Flp-In 293 T-REx™ cells were transfected with pcDNA™5/FRT plasmid inserted with cDNA encoding Gaussia Luciferase fused to the 3′ end of cDNA encoding Prl signal sequence plus 10 amino acids (N-[…]-C) (SEQ ID NO:4). Transfected cells were selected for resistance to the selectable markers Hygromycin and Blasticidin to create a stable cell line that constitutively expressed the Prlss+10aa/Gaussia Luciferase fusion protein. The day before assay, cells were trypsinized and plated in 384-well tissue culture plates. The next day, culture media was removed from the wells and replaced with fresh media. Compound dilutions in DMSO/media were added to the wells and incubated at 37° C., 5% CO2.
24 hr Dox Inducible Prl-ss-Gluc Assay
Flp-In 293 T-REx™ cells were transfected with pcDNA™5/FRT/TO plasmid inserted with cDNA encoding Gaussia Luciferase fused to the 3′ end of cDNA encoding Prl signal sequence plus 10 amino acids (N-[…]-C) (SEQ ID NO:5). Transfected cells were selected for resistance to the selectable markers Hygromycin and Blasticidin to create a stable cell line that contained the Prl-ss+10aa/Gaussia Luciferase cDNA insert whose expression was regulated under the T-REx™ system. The day before assay, cells were trypsinized and plated in 384-well tissue culture plates. The next day, compound dilutions in DMSO/media containing doxycycline were added to the wells and incubated at 37° C., 5% CO2.

[5] = system: PD1-ss+10aa/Gaussia Luciferase; test: Dox induced PD1-ss-Gluc assay
How it was run: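 Stable Flp-In 293 T-REx line expressing doxycycline-inducible Gaussia luciferase fused to the PD1 signal sequence plus 10 amino acids. Cells plated the day before, then exposed to compound dilutions in DMSO/media containing doxycycline at 37 °C, 5% CO2.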

[6] = system: TNFα-FL/Gaussia Luciferase; test: Dox induced TNFα-FL-Gluc assay
How it was run: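 Stable Flp-In 293 T-REx line expressing full-length TNFα (aa 1-233) fused at its C-terminus to Gaussia luciferase under doxycycline-inducible control. Cells plated the day before, then given compound dilutions in DMSO/media containing doxycycline and incubated at 37 °C, 5% CO2.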

[7] = system: NCI-H929 multiple myeloma cell line; test: H929 assay (cell viability, Celltiter-Glo); settings: Homo sapiens, read-out: H929 EC50
How it was run: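 Cells plated in RPMI 1640 with 10% FBS and 2 mM glutamine, treated with compound dilutions in DMSO/media. Incubation 48 h at 37° C, 5% CO2. Viability from luciferase luminescence signal.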

[8] = HEK-293T T-rex cells, transient transfection, doxycycline, 24 h; read-out: HER3 ss IC50
[9] = Flp-In 293 T-REx cells, doxycycline, 24 hours; read-out: PD1ss Gluc IC50
[10] = Flp-In 293 T-REx cells, doxycycline, 24 hours; read-out: TNFa FL Gluc IC50
[11] = Flp-In 293 T-REx cells, 24 hours; read-out: Prl IC50
[12] = NCI-H929, 48 hours, cell viability

Structure (SMILES)	IC50 [2, 8]	EC50 ([3]; I.A.)	IC50 ([4]; I.A.; read-out: Prl IC50)	IC50 [5, 9]	IC50 [6, 10]	IC50 [4, 11]	EC50 [7, 12]	further results
CC(C)C[C@@H]1NC(=O)[C@H](Cc2cn(Cc3ccc(F)cc3)c3ccccc23)N(C)C(=O)[C@H](CC(C)C)NC(=O)[C@H](CC(C)C)N(C)C(=O)[C@H](CC(C)C)NC(=O)[C@@H](C)OC(=O)[C@H](C)N(C)C1=O [C-30] (HELM PEPTIDE1{L.[meA].[C[C@@H](O[*:1])C(=O)[*:2]].L.[meL].L.[CN([C@@H](Cc1cn(Cc2ccc(F)cc2)c2ccccc12)C(=O)[*:2])[*:1]]}$PEPTIDE1,PEPTIDE1,1:R1-7:R2$$$V2.0)	–	–	–	–	–	–	–	EC50 [1]: 14200 nM
CC(C)C[C@@H]1NC(=O)[C@H](Cc2csc3ccc(Cl)cc23)N(C)C(=O)[C@H](CC(F)(F)F)NC(=O)[C@H](CC(C)C)N(C)C(=O)[C@H](CC(F)(F)F)NC(=O)[C@@H](CCC#N)OC(=O)[C@H](C)N(C)C1=O [C-90] (cyclo(L[NMeA][Butanoyl(2R-oxy,4-CN)][Abu(4,4,4-F3)][NMeL][Abu(4,4,4-F3)][NMeAla(5-Cl-benzothien-3-yl)]))	38 nM	> 25000 nM	> 25000 nM	520 nM	2880 nM	–	–	EC50 ([7]; NCI-H929, I.A.): > 25 µM
CC#CCn1cc(C[C@H]2C(=O)N[C@@H](CC(C)C)C(=O)N(C)[C@@H](C)C(=O)O[C@H](CCC#N)C(=O)N[C@@H](CC(F)(F)F)C(=O)N(C)[C@@H](CC(C)C)C(=O)N[C@@H](CC(F)(F)F)C(=O)N2C)c2ccccc21 [C-91] (cyclo(L[NMeA][Butanoyl(2R-oxy,4-CN)][Abu(4,4,4-F3)][NMeL][Abu(4,4,4-F3)][X14]))	124 nM	> 25000 nM	–	274 nM	986 nM	9800 nM	4.88 µM	–
CC(C)C[C@@H]1NC(=O)[C@H](Cc2csc3ccc(Cl)cc23)N(C)C(=O)[C@H](CC(F)(F)F)NC(=O)[C@H](CC(C)C)N(C)C(=O)[C@H](CC(C)C)NC(=O)[C@@H](CCC#N)OC(=O)[C@H](C)N(C)C1=O [C-92] (cyclo(L[NMeA][Butanoyl(2R-oxy,4-CN)]L[NMeL][Abu(4,4,4-F3)][NMeAla(5-Cl-benzothien-3-yl)]))	98 nM	> 25000 nM	> 25000 nM	813 nM	3860 nM	–	9.88 µM	–
CC(C)C[C@@H]1NC(=O)[C@H](Cc2csc3ccc(Cl)cc23)N(C)C(=O)[C@H](CC(C)C)NC(=O)[C@H](CC(C)C)N(C)C(=O)[C@H](CC(C)C)NC(=O)[C@@H](CCC#N)OC(=O)[C@H](C)N(C)C1=O [C-93] (HELM PEPTIDE1{L.[meA].[N#CCC[C@@H](O[*:1])C(=O)[*:2]].L.[meL].L.[CN([C@@H](Cc1csc2ccc(Cl)cc12)C(=O)[*:2])[*:1]]}$PEPTIDE1,PEPTIDE1,1:R1-7:R2$$$V2.0)	38 nM	–	–	278 nM	672 nM	5700 nM	3.39 µM	EC50 ([3]; 48 hours, cell viability): 16200 nM
CC(C)C[C@@H]1NC(=O)[C@H](Cc2csc3c(Cl)cccc23)N(C)C(=O)[C@H](CC(C)C)NC(=O)[C@H](CC(C)C)N(C)C(=O)[C@H](CC(F)(F)F)NC(=O)[C@@H](CCC#N)OC(=O)[C@H](C)N(C)C1=O [C-94] (cyclo(L[NMeA][Butanoyl(2R-oxy,4-CN)][Abu(4,4,4-F3)][NMeL]L[X16]))	74 nM	> 25000 nM	–	425 nM	1240 nM	19300 nM	6.05 µM	–
CC(C)C[C@@H]1NC(=O)[C@H](Cc2cn(Cc3ccc(Cl)cc3)c3ccccc23)N(C)C(=O)[C@H](CC(C)C)NC(=O)[C@H](CC(C)C)N(C)C(=O)[C@H](CC(F)(F)F)NC(=O)[C@@H](CCC#N)OC(=O)[C@H](C)N(C)C1=O [C-95] (cyclo(L[NMeA][Butanoyl(2R-oxy,4-CN)][Abu(4,4,4-F3)][NMeL]L[X19]))	–	> 25000 nM	–	–	–	–	–	IC50 ([2]; read-out: HER3 ss IC50; HEK-293T T-rex cells, transient transfection, doxycycline, 24 h): 35 nM; IC50 ([4]; read-out: Prl IC50; Flp-In 293 T-REx cells, 24 hours): 391 nM; IC50 ([5]; read-out: PD1ss Gluc IC50; Flp-In 293 T-REx cells, doxycycline, 24 hours): 19 nM; IC50 ([6]; read-out: TNFa FL Gluc IC50; Flp-In 293 T-REx cells, doxycycline, 24 hours): 93 nM; EC50 ([7]; NCI-H929, 48 h): 0.588 µM
CC(C)C[C@@H]1NC(=O)[C@H](Cc2csc3ccc(Cl)cc23)N(C)C(=O)[C@H](CC2=CCCC2)NC(=O)[C@H](CC(C)C)N(C)C(=O)[C@H](CC(F)(F)F)NC(=O)[C@@H](CCC#N)OC(=O)[C@H](C)N(C)C1=O [C-96] (cyclo(L[NMeA][Butanoyl(2R-oxy,4-CN)][Abu(4,4,4-F3)][NMeL][X12][NMeAla(5-Cl-benzothien-3-yl)]))	6 nM	> 25000 nM	> 25000 nM	472 nM	3840 nM	–	8.4 µM	–
CC(C)C[C@@H]1NC(=O)[C@H](Cc2csc3ccc(Cl)cc23)N(C)C(=O)[C@H](CC2=CCCCC2)NC(=O)[C@H](CC(C)C)N(C)C(=O)[C@H](CC(F)(F)F)NC(=O)[C@@H](CCC#N)OC(=O)[C@H](C)N(C)C1=O [C-97] (cyclo(L[NMeA][Butanoyl(2R-oxy,4-CN)][Abu(4,4,4-F3)][NMeL][Ala(1-cyclohexenyl)][NMeAla(5-Cl-benzothien-3-yl)]))	6 nM	> 25000 nM	> 25000 nM	709 nM	–	–	–	IC50 ([6]; I.A.; read-out: TNFa FL Gluc IC50): > 25000 nM; EC50 ([7]; NCI-H929, 48 hours, cell viability, μM): > 20 µM
CC(C)C[C@@H]1NC(=O)[C@H](Cc2csc3ccc(Cl)cc23)N(C)C(=O)[C@H](CC(C)C)NC(=O)[C@H](CC(C)C)N(C)C(=O)[C@H](CC2=CCCC2)NC(=O)[C@@H](CCC#N)OC(=O)[C@H](C)N(C)C1=O [C-98] (cyclo(L[NMeA][Butanoyl(2R-oxy,4-CN)][X12][NMeL]L[NMeAla(5-Cl-benzothien-3-yl)]))	35 nM	> 25000 nM	–	259 nM	889 nM	17900 nM	4 µM	–
CC(C)C[C@@H]1NC(=O)[C@H](Cc2csc3ccc(Cl)cc23)N(C)C(=O)[C@H](CC(C)C)NC(=O)[C@H](CC(C)C)N(C)C(=O)[C@H](CC2=CCCCC2)NC(=O)[C@@H](CCC#N)OC(=O)[C@H](C)N(C)C1=O [C-99] (cyclo(L[NMeA][Butanoyl(2R-oxy,4-CN)][Ala(1-cyclohexenyl)][NMeL]L[NMeAla(5-Cl-benzothien-3-yl)]))	30 nM	> 25000 nM	–	149 nM	605 nM	19800 nM	5.26 µM	–
